Measured values as given in patent US20190192699A1, “NUCLEAR IMAGING AND RADIOTHERAPEUTICS AGENTS TARGETING CARBONIC ANHYDRASE IX AND USES THEREOF” (THE JOHNS HOPKINS UNIVERSITY, priority 2016, published 2019).
Entries after “also recorded” stand apart in the source; their conditions may differ.

Experiments:
[1] = system: CAIX-expressing SK-RC-52 tumors; experiment: SPECT/CT imaging of [177Lu]XYIMSR-01; format: in vivo, mice; settings: intravenous
Protocol: (§1) Cell Lines and Mouse Models. Animal experiments were performed in accordance with protocols approved by the Johns Hopkins Animal Care and Use Committee (ACUC). Six-week-old female NOD/SCID mice were purchased from the Animal Resource Core of the Sidney Kimmel Comprehensive Cancer Center of Johns Hopkins and were subcutaneously injected in the lower left flank or upper right flank with 1×10^6 SK-RC-52 cells in RPMI 1640 GlutaMAX™ media (Life Technologies, Frederick, Md.) supplemented with 1% fetal bovine serum (FBS). Mice were monitored for tumor size and used for SPECT/CT imaging when the size of the tumor reached 100 mm^3.
SPECT/CT imaging of [^177Lu]XYIMSR-01. Mice were injected with 1.7 mCi of [^177Lu]XYIMSR-01 in 250 uL of PBS (pH7.0) intravenously, anesthetized under 3% isofluorane prior to being placed on the scanner bed and kept warm with an external light source while being scanned. Isofluorane levels were decreased to 1% throughout the scanning process in order to ensure mouse survival. Imaging of mice was then carried out using a CT-equipped Gamma Medica-Ideas SPECT scanner (Northridge, Calif.). A CT scan was performed at the end of each SPECT scan for anatomical co-registration. CT and SPECT scans were performed at 1, 4, 8, 24, and 48 hrs post injection of the [^177Lu]XYIMSR-01. Obtained data sets were subsequently reconstructed using the provided Gamma Medica-Ideas software. […]

[2] = system: SK-RC-52 xenografts; experiment: Biodistribution of [111In]XYIMSR-01 and [177Lu]XYIMSR-01; format: in vivo, mice
Protocol: as §1
Biodistribution of [^111In]XYIMSR-01 and [^177Lu]XYIMSR-01. Mice bearing SK-RC-52 xenografts at lower left flank were injected intravenously with 740 kBq (20 μCi) of [^111In]XYIMSR-01, or [^177Lu]XYIMSR-01 in 200 μL of PBS. For competitive blocking, same tumor bearing mice were injected with 740 kBq (20 μCi) of [^111In]XYIMSR-01 and 200 nmole of 1 in 200 μL of PBS. At 1 h, 4 h, 8 h, 24 h and 48 h post-injection, mice were sacrificed by cervical dislocation and the blood was immediately collected by cardiac puncture. Heart, lungs, pancreas, spleen, fat, brain, muscle, small intestines, liver, stomach, kidney, urinary bladder, and tumor were collected. Each organ was weighed and the tissue radioactivity was measured with an automated gamma counter (1282 Compugamma CS, Pharmacia/LKBNuclear, Inc., Mt. Waverly, Vic. Australia). The percentage of injected dose per gram of tissue (% ID/g) was calculated by comparison with samples of a standard dilution of the initial dose. All measurements were corrected for radioactive decay.
Data were expressed as mean±standard deviation (SD). Prism software (GraphPAD, San Diego, Calif.) was used to determine statistical significance. Statistical significance was calculated using a paired t test. P-values […] were considered significant.

[3] = 24 hr + Block (200 nmole of 1 co-injected)

CC(CCC(=O)N[C@@H](CC(=O)N[C@@H](CC(=O)N[C@@H](CCCCn1cc(CCCC(=O)Nc2nnc(S(N)(=O)=O)s2)nn1)C(=O)NCCOCCOCCNC(=O)CN1CCN(CC(=O)[O-])CCN(CC(=O)[O-])CCN(CC(=O)[O-])CC1)C(=O)O)C(=O)O)(c1ccc(O)cc1)c1ccc(O)cc1.[177Lu+3] [[^177Lu]XYIMSR-01]
SPECT/CT tumor imaging finding [1]: radiotracer uptake in tumor as early as 1 h post-injection; also recorded: tumor visualization by 1 h post-injection | Biodistribution: Bladder ([2]; 1 hr post-injection): 26.55 ± 11.08 % ID/g | Biodistribution: Blood ([2]; 1 hr post-injection): 0.55 ± 0.06 % ID/g | Biodistribution: Brain ([2]; 1 hr post-injection): 0.49 ± 0.08 % ID/g | Biodistribution: Fat ([2]; 1 hr post-injection): 1.07 ± 0.58 % ID/g | Biodistribution: Heart ([2]; 1 hr post-injection): 3.59 ± 0.73 % ID/g | Biodistribution: Kidney ([2]; 1 hr post-injection): 40.77 ± 6.68 % ID/g | Biodistribution: Liver ([2]; 1 hr post-injection): 4.15 ± 0.39 % ID/g | Biodistribution: Lung ([2]; 1 hr post-injection): 23.72 ± 6.49 % ID/g | Biodistribution: Muscle ([2]; 1 hr post-injection): 1.42 ± 0.40 % ID/g | Biodistribution: Pancreas ([2]; 1 hr post-injection): 2.03 ± 0.25 % ID/g | Biodistribution: Small intestine ([2]; 1 hr post-injection): 6.11 ± 0.68 % ID/g | Biodistribution: Spleen ([2]; 1 hr post-injection): 0.29 ± 0.07 % ID/g | Biodistribution: Stomach ([2]; 1 hr post-injection): 12.20 ± 1.66 % ID/g | Biodistribution: Tumor ([2]; 1 hr post-injection): 26.91 ± 6.06 % ID/g | Tumor/Blood ratio ([2]; 1 hr post-injection): 47.9 ± 13.4 | Tumor/Kidney ratio ([2]; 1 hr post-injection): 0.6 ± 0.2 | Tumor/Muscle ratio ([2]; 1 hr post-injection): 18.8 ± 5.0 | Biodistribution: Bladder ([2]; 4 hr post-injection): 6.60 ± 3.66 % ID/g | Biodistribution: Blood ([2]; 4 hr post-injection): 0.18 ± 0.02 % ID/g | Biodistribution: Brain ([2]; 4 hr post-injection): 0.33 ± 0.04 % ID/g | Biodistribution: Fat ([2]; 4 hr post-injection): 0.56 ± 0.14 % ID/g | Biodistribution: Heart ([2]; 4 hr post-injection): 1.52 ± 0.54 % ID/g | Biodistribution: Kidney ([2]; 4 hr post-injection): 19.17 ± 2.82 % ID/g | Biodistribution: Liver ([2]; 4 hr post-injection): 1.79 ± 0.44 % ID/g | Biodistribution: Lung ([2]; 4 hr post-injection): 10.35 ± 1.86 % ID/g | Biodistribution: Muscle ([2]; 4 hr post-injection): 0.65 ± 0.19 % ID/g | Biodistribution: Pancreas ([2]; 4 hr post-injection): 0.99 ± 0.19 % ID/g | Biodistribution: Small intestine ([2]; 4 hr post-injection): 2.64 ± 0.17 % ID/g | Biodistribution: Spleen ([2]; 4 hr post-injection): 0.15 ± 0.03 % ID/g | Biodistribution: Stomach ([2]; 4 hr post-injection): 6.06 ± 1.57 % ID/g | Biodistribution: Tumor ([2]; 4 hr post-injection): 26.28 ± 4.25 % ID/g | Tumor/Blood ratio ([2]; 4 hr post-injection): 150.3 ± 34.6 | Tumor/Kidney ratio ([2]; 4 hr post-injection): 1.4 ± 0.4 | Tumor/Muscle ratio ([2]; 4 hr post-injection): 43.7 ± 16.8 | Biodistribution: Bladder ([2]; 8 hr post-injection): 6.00 ± 3.52 % ID/g | Biodistribution: Blood ([2]; 8 hr post-injection): 0.16 ± 0.05 % ID/g | Biodistribution: Brain ([2]; 8 hr post-injection): 0.44 ± 0.08 % ID/g | Biodistribution: Fat ([2]; 8 hr post-injection): 0.46 ± 0.17 % ID/g | Biodistribution: Heart ([2]; 8 hr post-injection): 1.49 ± 0.59 % ID/g | Biodistribution: Kidney ([2]; 8 hr post-injection): 18.99 ± 6.14 % ID/g | Biodistribution: Liver ([2]; 8 hr post-injection): 1.87 ± 0.77 % ID/g | Biodistribution: Lung ([2]; 8 hr post-injection): 8.87 ± 3.30 % ID/g | Biodistribution: Muscle ([2]; 8 hr post-injection): 0.47 ± 0.18 % ID/g | Biodistribution: Pancreas ([2]; 8 hr post-injection): 1.03 ± 0.50 % ID/g | Biodistribution: Small intestine ([2]; 8 hr post-injection): 3.67 ± 0.93 % ID/g | Biodistribution: Spleen ([2]; 8 hr post-injection): 0.29 ± 0.05 % ID/g | Biodistribution: Stomach ([2]; 8 hr post-injection): 6.15 ± 2.65 % ID/g | Biodistribution: Tumor ([2]; 8 hr post-injection): 27.48 ± 4.32 % ID/g | Tumor/Blood ratio ([2]; 8 hr post-injection): 178.6 ± 36.6 | Tumor/Kidney ratio ([2]; 8 hr post-injection): 1.5 ± 0.3 | Tumor/Muscle ratio ([2]; 8 hr post-injection): 65.0 ± 19.0 | Biodistribution: Bladder [2, 3]: 0.73 ± 0.55 % ID/g | Biodistribution: Blood [2, 3]: 0.04 ± 0.02 % ID/g | Biodistribution: Brain [2, 3]: 0.04 ± 0.01 % ID/g | Biodistribution: Fat [2, 3]: 0.03 ± 0.03 % ID/g | Biodistribution: Heart [2, 3]: 0.08 ± 0.04 % ID/g | Biodistribution: Kidney [2, 3]: 1.54 ± 1.44 % ID/g | Biodistribution: Liver [2, 3]: 0.46 ± 0.34 % ID/g | Biodistribution: Lung [2, 3]: 0.73 ± 0.58 % ID/g | Biodistribution: Muscle [2, 3]: 0.03 ± 0.01 % ID/g
